Holding throughout (format): biochemical
Assay [1] deals with OleT. Nature of the assay: Decarboxylation of FAs C22 to C4 employing the FDH-CamAB-OleT redox-cascade. The conditions noted are these: 25 °C, 24 h, 10 mM substrate. As to the method: Enzymatic reactions (1 mL scale) were quenched by addition of 100 μL 5 N Extraction of substrate and products was performed with 500 μL EtOAc containing 0.1% 1-decanol as internal standard. The organic phase was dried over anhydrous Na2SO4. Derivatization of carboxylic acids (fatty acids and hydroxy acids) to the corresponding methyl esters was achieved by mixing the organic phase with MeOH (2.5:1.5 v/v) followed by supplementation of 5 to 15 μL of 2 M TMSCHN2 (trimethylsilyldiazomethane in diethyl ether). The mixture was incubated for 30 min, 25° C. and 750 rpm before injection into GC-FID or GC-MS, Extraction and derivatization of products and substrates from conversion of short chain FAs ([…]) was performed using the same protocol but all steps were performed on ice to prevent undesired loss of volatile products.
Products from FA substrates with chain lengths ranging from C22 to C10 were separated on a HP5 column (Programm) and detected by GC-FID or GC-MS. Extracted products from conversion of nonanoic acid (I-octene as product) were separated on a DB1702 column (Programm) and detected by GC-FID. Authentic standards of substrates and terminal olefins were treated as described above and were used as references for identification and preparation of calibration curves. Detection of volatile short chain terminal olefins (1-butene/1-propene [ongoing] to 1-heptene) was accomplished by manual injection from vial headspaces into GC-MS, in order to prevent loss of products, the vials containing the reaction mixtures were sealed with a PTFE septum. After conversion the closed vial was heated for 10 min at 80° C., together with a 10 ml syringe (TYPE). From the headspace 2 to 9 μl volumes were injected splitless into a GC-MS chromatograph and analytes were separated on a HP5 column (Programm). Calibration curves for 1-pentene, 1-hexene and 1-heptene were prepared in the same way at 4° C. and using 5% DMF as cosolvent.
The substrate scope of OleT was further investigated by varying the FA chain length from C3 to C22. […] For the first time, short EAs could be decarboxylated to the corresponding olefins, covering the whole spectrum from C11 down to C4. […] Due to the high volatility of short chain olefins, product work up was done at 4° C. […] (2.53 mM product from 5 mM lauric acid). Head-space analysis by GC-MS from reactions with short chain FAs (C8-C5) confirmed the formation of the respective α-olefins, allowing the first biotechnological access to 1-heptene, 1-hexene and 1-pentene and 1-butene with OleT.
Conversion of heptanoic acid was carried out as described in Example 4 using the OleTCamAB-FDH reaction cascade.
Calibration curves for 1-hexene were prepared accordingly ranging from 0.05 to 2 mM. Due to a strong overlap of […] with the peak areas of CO2 and EtOH (FIG. 1, peaks a, b and c) the ion extraction mode of the GC-MS to generate reliable calibration curves was used. Neither CO2 nor EtOH interfered with the product peak area. This can be seen comparing FIGS. 1 and 5 which allow reliable and linear quantification of 1-hexene (FIG. 6) using manual headspace GC-MS injection.
Manual headspace injection into GC-MS was successfully performed for all substrates with chain lengths of C11 to C6. Conversion of 10 mM heptanoic acid allowed reliable formation of up to 1.3 mM 1-hexene without further optimization of the reaction conditions.

The test system of assay [2] is OleT. Nature of the assay: Trapping, derivatization (Br2/DCM impinger) and quantification of 1-butene and 1-propene formed by the OleT-CamAB-FDH cascade. The conditions noted are these: 10 mM substrate, 10 ml scale. As to the method: FIG. 7 is a picture of a novel reaction set up for trapping volatile α-olefins, such as 1-propene and 1-butene. A small impinger containing 10 ml of a 20 mM Br2/DCM solution was placed on top of the flask serving as sole gas outlet and trap for α-olefin products. The functionality of this system was successfully confirmed using an analytical standard of 1-heptene. The concept for derivatization and trapping of volatile α-olefins is shown in Scheme 2.
Production of 1-propene and 1-butene was initially confirmed using manual headspace GC-MS injection. Since the quantification of 1-propene and 1-butene using analytical standards was not feasible, a novel trapping/derivatization system for highly volatile short-chain α-olefins derived from biocatalytic reactions was designed. […]
The obtained products were analyzed by GC-FID and GC-MS using analytical standards of 1,2-dibromobutane and 1,2-dibromopropane. Due to the (visible) gas exhaust (CO2 production by OleT and FDH) and strong evaporation of DCM (˜70% volume lost after 24 h), the residual volume in the impinger was determined to allow reliable product quantification. Calibration curves for 1,2-dibromobutane and 1,2-dibromopropane were prepared to allow quantification of produced 1-propene and 1-butene (not shown). […]

In assay [3] the test system is OleT. The assay can be described thus: Inhibitory effect of gluconic acid on OleT productivity. The following applies: 10 mM gluconic acid. As to the method: After 24 h reaction time, product concentrations of 1.16 mM (0.27 g L-1) 1-heptadecene and 1 mM (0.21 g L-1) 1-pentadecene were obtained but could not be further enhanced. […] Compared to a previously published whole cell reaction system, this FDH-driven system allows 6 times higher product titer and a 21 times higher volumetric productivity with 42.5 mg L-1 h-1 of α-olefin after 8 h reaction time vs: 98 mg L-1 in 48 h) (Table 2).

In assay [1], `CCCC(=O)O` [C4, butyric acid] yielded a Conversion of 5% and a α-Olefin of 504 µM. Also, in assay [2], the “α-olefin formed (trapped as 1,2-dibromoalkane)” value came out at 504 µM.

On to `CCCCC(=O)O` [C5, valeric acid], for which, in assay [1], the Conversion is listed as 8.3% and the α-Olefin worked out at 834 µM. For the same compound, in assay [2], the “α-olefin formed (trapped as 1,2-dibromoalkane)” value is 834 µM.

With `O=C(O)[C@H](O)[C@@H](O)[C@H](O)[C@H](O)CO` [gluconic acid], in assay [3], the “reduction of OleT productivity” value was 28%.
